Source: patent US12202843B2, “Muscarinic receptor agonists” (Nxera Pharma UK Limited, priority 2014, dated 2025)

Tests used:
Assay type in all cases: cell-based
[1] = biological target: T1, human muscarinic M2 receptor (Homo sapiens, UniProt P08172); assay: Alphascreen Surefire phospho-ERK1/2 functional assay, M2; conditions: for EC50: CHO cells stably expressing human M2, read-out: pEC50 M2 (converted); for Emax: CHO, read-out: % Emax cf. ACh, M2, CHO cells stably expressing human M2, relative to ACh; for % Emax cf. ACh, M2: CHO cells stably expressing human M2, relative to ACh
T1 sequence (P08172 1-466): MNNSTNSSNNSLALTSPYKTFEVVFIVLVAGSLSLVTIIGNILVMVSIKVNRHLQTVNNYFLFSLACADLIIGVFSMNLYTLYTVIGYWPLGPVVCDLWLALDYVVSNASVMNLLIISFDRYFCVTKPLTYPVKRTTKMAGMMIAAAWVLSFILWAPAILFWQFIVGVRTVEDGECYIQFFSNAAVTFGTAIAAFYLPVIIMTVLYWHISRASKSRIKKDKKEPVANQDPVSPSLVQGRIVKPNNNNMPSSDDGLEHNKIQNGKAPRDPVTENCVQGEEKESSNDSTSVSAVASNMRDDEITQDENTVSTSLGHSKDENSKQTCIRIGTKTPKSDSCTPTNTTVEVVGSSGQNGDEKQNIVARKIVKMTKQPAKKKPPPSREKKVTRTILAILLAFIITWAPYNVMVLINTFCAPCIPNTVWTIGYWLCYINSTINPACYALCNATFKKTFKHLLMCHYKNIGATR
Procedure: (§1) ERK1/2 phosphorylation is a downstream consequence of both Gq/11 and Gi/o protein coupled receptor activation, making it highly suitable for the assessment of M1, M3 (Gq/11 coupled) and M2, M4 receptors (Gi/o coupled), rather than using different assay formats for different receptor subtypes. CHO cells stably expressing the human muscarinic M1, M2, M3 or M4 receptor were plated (25K/well) onto 96-well tissue culture plates in MEM-alpha+10% dialysed FBS. Once adhered, cells were serum-starved overnight. Agonist stimulation was performed by the addition of 5 μL agonist to the cells for 5 min (37° C.). Media was removed and 50 μL of lysis buffer added. […] Plates were incubated for 2 h with gentle agitation in the dark and then read on a PHERAstar plate reader.
(§2) pEC50 and Emax figures were calculated from the resulting data for each receptor subtype.

[2] = biological target: T2, human muscarinic M3 receptor (Homo sapiens, UniProt P20309); assay: Alphascreen Surefire phospho-ERK1/2 functional assay, M3; conditions: for EC50: CHO cells stably expressing human M3, read-out: pEC50 M3 (converted); for % Emax cf. ACh, M3: CHO cells stably expressing human M3, relative to ACh; for Emax: CHO, read-out: % Emax cf. ACh, M3, CHO cells stably expressing human M3, relative to ACh
T2 construct: expressed in transfected cells
Procedure: as §1, §2

[3] = biological target: T3, human muscarinic M1 receptor (Homo sapiens, UniProt P11229); assay: Alphascreen Surefire phospho-ERK1/2 functional assay, M1; conditions: for EC50: CHO cells stably expressing human M1, read-out: pEC50 M1 (converted); for % Emax cf. ACh, M1: CHO cells stably expressing human M1, relative to ACh; for Emax: CHO, read-out: % Emax cf. ACh, M1, CHO cells stably expressing human M1, relative to ACh
T3 sequence (P11229 1-460): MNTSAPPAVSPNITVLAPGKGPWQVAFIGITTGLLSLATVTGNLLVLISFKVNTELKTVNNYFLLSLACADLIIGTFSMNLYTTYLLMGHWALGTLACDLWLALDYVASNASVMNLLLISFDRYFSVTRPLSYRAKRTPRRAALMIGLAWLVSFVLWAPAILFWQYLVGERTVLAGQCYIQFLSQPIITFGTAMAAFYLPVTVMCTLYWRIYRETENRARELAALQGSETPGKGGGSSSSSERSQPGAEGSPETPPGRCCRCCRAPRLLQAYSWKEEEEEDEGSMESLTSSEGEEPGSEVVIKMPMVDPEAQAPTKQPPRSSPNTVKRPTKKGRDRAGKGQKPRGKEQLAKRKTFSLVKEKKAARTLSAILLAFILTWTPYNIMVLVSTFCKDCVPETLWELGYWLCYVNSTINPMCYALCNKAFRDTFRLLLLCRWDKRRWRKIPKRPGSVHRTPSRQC

[4] = biological target: T4, human muscarinic M4 receptor (Homo sapiens, UniProt P08173); assay: Alphascreen Surefire phospho-ERK1/2 functional assay, M4; conditions: for EC50: CHO cells stably expressing human M4, read-out: pEC50 M4 (converted); for % Emax cf. ACh, M4: CHO cells stably expressing human M4, relative to ACh; for Emax: CHO, read-out: % Emax cf. ACh, M4, CHO cells stably expressing human M4, relative to ACh
T4 construct: expressed in transfected cells
T4 sequence (P08173 1-479): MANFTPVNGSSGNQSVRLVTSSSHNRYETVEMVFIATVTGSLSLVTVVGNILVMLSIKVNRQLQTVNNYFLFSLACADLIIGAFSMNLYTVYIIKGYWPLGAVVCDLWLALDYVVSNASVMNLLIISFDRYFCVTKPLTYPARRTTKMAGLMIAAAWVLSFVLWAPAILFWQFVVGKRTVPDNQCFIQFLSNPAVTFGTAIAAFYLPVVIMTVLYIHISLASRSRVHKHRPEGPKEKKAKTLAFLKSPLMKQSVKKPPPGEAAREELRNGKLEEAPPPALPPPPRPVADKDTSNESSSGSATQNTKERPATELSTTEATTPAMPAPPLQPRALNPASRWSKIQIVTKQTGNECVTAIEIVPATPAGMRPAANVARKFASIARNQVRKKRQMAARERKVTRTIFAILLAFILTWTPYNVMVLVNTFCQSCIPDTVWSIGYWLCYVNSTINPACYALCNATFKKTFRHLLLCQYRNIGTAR

T2 sequence (P20309 whole entry): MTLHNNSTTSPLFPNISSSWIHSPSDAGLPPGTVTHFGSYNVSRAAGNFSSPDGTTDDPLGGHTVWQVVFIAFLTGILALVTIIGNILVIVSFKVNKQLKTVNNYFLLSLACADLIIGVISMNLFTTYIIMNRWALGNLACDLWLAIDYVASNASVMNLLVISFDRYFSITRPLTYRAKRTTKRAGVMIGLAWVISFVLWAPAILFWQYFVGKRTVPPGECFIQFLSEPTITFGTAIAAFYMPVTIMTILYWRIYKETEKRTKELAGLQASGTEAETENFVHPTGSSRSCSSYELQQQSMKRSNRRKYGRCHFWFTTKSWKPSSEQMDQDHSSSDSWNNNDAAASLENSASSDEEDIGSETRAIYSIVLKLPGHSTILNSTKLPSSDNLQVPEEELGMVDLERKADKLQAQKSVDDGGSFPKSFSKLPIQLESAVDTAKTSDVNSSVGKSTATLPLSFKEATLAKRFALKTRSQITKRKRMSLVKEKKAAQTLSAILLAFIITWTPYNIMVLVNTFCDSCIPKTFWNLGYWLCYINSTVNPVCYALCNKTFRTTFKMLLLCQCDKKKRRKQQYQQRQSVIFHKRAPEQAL

CCOC(=O)N1C2CCC1CC(N1CCC3(CC1)CC(=O)NC3CC)C2 (single isomer, unassigned) [Example 2-8 Isomer 1, ethyl 3-(1-ethyl-3-oxo-2,8-diazaspiro[4.5]decan-8-yl)-8-azabicyclo[3.2.1]octane-8-carboxylate]
EC50 [1]: > 20 µM
Emax [1]: 4%
EC50 [2]: 12.6 µM
% Emax cf. ACh, M3 ([2]; listed as 2-8 Isomer 1): 50%
EC50 [3]: 0.02 µM
% Emax cf. ACh, M1 ([3]; listed as 2-8 Isomer 1): 52%
EC50 [4]: > 20 µM
% Emax cf. ACh, M4 ([4]; listed as 2-8 Isomer 1): 23%

CCOC(=O)N1C2CCC1CC(N1CCC3(CC1)OC(=O)NC3CC)C2 (single isomer, unassigned) [Example 2-16 Isomer 1]
EC50 [1]: > 20 µM
Emax [1]: 3%
EC50 [2]: > 20 µM
Emax [2]: 9%
EC50 [3]: 0.0501 µM
% Emax cf. ACh, M1 ([3]; listed as 2-16 Isomer 1): 36%
EC50 [4]: 0.0794 µM
% Emax cf. ACh, M4 ([4]; listed as 2-16 Isomer 1): 19%

C#CCOC(=O)N1C2CCCC1CC(N1CCC3(CC1)CNC(=O)C3)C2 (single isomer, unassigned) [Example 5-2 Isomer 2, prop-2-yn-1-yl 3-(3-oxo-2,8-diazaspiro[4.5]dec-8-yl)-9-azabicyclo[3.3.1]nonane-9-carboxylate]
% Emax cf. ACh, M2 [1]: 3%
% Emax cf. ACh, M3 ([2]; listed as 5-2 Isomer 2): 4%
% Emax cf. ACh, M1 ([3]; listed as 5-2 Isomer 2): 48%
EC50 [4]: 0.0631 µM
% Emax cf. ACh, M4 [4]: 20%

CCCC1NC(=O)CC12CCN(C1CC3CCC(C1)N3C(=O)OCC)CC2 (single isomer, unassigned) [Example 2-9 Isomer 1]
EC50 [1]: > 20 µM
Emax [1]: 2%
EC50 [2]: > 20 µM
Emax [2]: 22%
EC50 [3]: 0.00501 µM
Emax [3]: 91%
EC50 [4]: 0.00251 µM
Emax [4]: 78%

CCOC(=O)N1C2CC[C@@H]1C[C@H](N1CCC3(CC1)CC(=O)N(O)C3)C2 [Example 2-24, ethyl (3-endo)-3-(2-hydroxy-3-oxo-2,8-diazaspiro[4.5]dec-8-yl)-8-azabicyclo[3.2.1]octane-8-carboxylate]
EC50 [1]: > 20 µM
Emax [1]: 4%
EC50 [2]: > 20 µM
Emax [2]: 4%
EC50 [3]: 0.0631 µM
Emax [3]: 88%
EC50 [4]: > 20 µM
Emax [4]: 29%

COC(=O)N1CC2CC(N3CCC4(CC3)CNC(=O)C4)CC1C2 (single isomer, unassigned) [Example 6-1 Isomer 2]
EC50 [1]: > 20 µM
Emax [1]: 18%
EC50 [2]: > 20 µM
Emax [2]: 5%
EC50 [3]: 0.02 µM
% Emax cf. ACh, M1 ([3]; listed as 6-1 Isomer 2): 104%
EC50 [4]: 0.0631 µM
% Emax cf. ACh, M4 [4]: 33%

CCOC(=O)N1C2CCC1CC(N1CCC3(CC1)CC(=O)NC3CC)C2 (single isomer, unassigned) [Example 2-8 Isomer 2, ethyl 3-(1-ethyl-3-oxo-2,8-diazaspiro[4.5]decan-8-yl)-8-azabicyclo [3.2.1]octane-8-carboxylate]
% Emax cf. ACh, M2 [1]: 6%
EC50 [2]: > 20 µM
% Emax cf. ACh, M3 ([2]; listed as 2-8 Isomer 2): 12%
EC50 [3]: 0.1 µM
% Emax cf. ACh, M1 ([3]; listed as 2-8 Isomer 2): 89%
EC50 [4]: 0.0316 µM
% Emax cf. ACh, M4 ([4]; listed as 2-8 Isomer 2): 59%

O=C1CC2(CCN(C3CC4CCC(C3)N4C(=O)OCCF)CC2)CN1 (single isomer, unassigned) [Example 2-3 Isomer 2]
EC50 [1]: > 20 µM
Emax [1]: 4%
EC50 [2]: > 20 µM
Emax [2]: 0%
EC50 [3]: 0.0794 µM
% Emax cf. ACh, M1 ([3]; listed as 2-3 Isomer 2): 49%
EC50 [4]: > 20 µM
% Emax cf. ACh, M4 ([4]; listed as 2-3 Isomer 2): 16%

CCOC(=O)N1C2CCCC1CC(N1CCC3(CC1)CNC(=O)C3)C2 (single isomer, unassigned) [Example 5-1 Isomer 1, ethyl 3-(3-oxo-2,8-diazaspiro[4.5]dec-8-yl)-9-azabicyclo[3.3.1]nonane-9-carboxylate]
EC50 [1]: 7.94 µM
Emax [1]: 17%
EC50 [2]: > 20 µM
Emax [2]: 8%
EC50 [3]: 0.316 µM
% Emax cf. ACh, M1 ([3]; listed as 5-1 Isomer 1): 131%
EC50 [4]: 0.251 µM
% Emax cf. ACh, M4 ([4]; listed as 5-1 Isomer 1): 25%

CCOC(=O)N1C2CCCC1CC(N1CCC3(CC1)CNC(=O)C3)C2 (single isomer, unassigned) [Example 5-1 Isomer 2, ethyl 3-(3-oxo-2,8-diazaspiro[4.5]dec-8-yl)-9-azabicyclo[3.3.1]nonane-9-carboxylate]
EC50 [1]: > 20 µM
% Emax cf. ACh, M2 [1]: 14%
% Emax cf. ACh, M3 [2]: 6%
EC50 [3]: 0.158 µM
% Emax cf. ACh, M1 ([3]; listed as 5-1 Isomer 2): 77%
EC50 [4]: > 20 µM
% Emax cf. ACh, M4 ([4]; listed as 5-1 Isomer 2): 8%

C#CCOC(=O)N1C2CCCC1CC(N1CCC3(CC1)CNC(=O)C3)C2 (single isomer, unassigned) [Example 5-2 Isomer 1, prop-2-yn-1-yl 3-(3-oxo-2,8-diazaspiro[4.5]dec-8-yl)-9-azabicyclo[3.3.1]nonane-9-carboxylate]
EC50 [1]: > 20 µM
Emax [1]: 3%
EC50 [2]: > 20 µM
% Emax cf. ACh, M3 ([2]; listed as 5-2 Isomer 1): 9%
EC50 [3]: 0.1 µM
% Emax cf. ACh, M1 ([3]; listed as 5-2 Isomer 1): 78%
EC50 [4]: 0.0794 µM
Emax [4]: 37%

CCOC(=O)N1C2CCC1CC(N1CCC3(CC1)CC(=O)NC3Cc1ccccc1)C2 (single isomer, unassigned) [Example 2-10 Isomer 2]
% Emax cf. ACh, M2 ([1]; listed as 2-10 Isomer 2): 11%
% Emax cf. ACh, M3 ([2]; listed as 2-10 Isomer 2): 13%
EC50 [3]: 0.0631 µM
% Emax cf. ACh, M1 [3]: 77%
EC50 [4]: 0.126 µM
% Emax cf. ACh, M4 ([4]; listed as 2-10 Isomer 2): 50%
